In PubChem BioAssay (NCI):
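Values below derive from 48-hour exposures of cells grown in 96-well plates, with endpoints linearly interpolated between the two concentrations bracketing the appropriate inhibition level. GI50 is the concentration that inhibits growth by half. TGI is the concentration that stops growth completely.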

Assays:
Assay in all cases: DTP human tumour cell line panel, 48 h; in the data active = GI50 below about 0.43 µM; inactive = the rest
[1] = test system: 786-0 renal
[2] = test system: A498 renal
[3] = test system: A549 NSCLC
[4] = test system: ACHN renal
[5] = test system: CAKI-1 renal
[6] = test system: COLO 205 colon
[7] = test system: DU-145 prostate
[8] = test system: EKVX NSCLC
[9] = test system: HCC-2998 colon
[10] = test system: HCT-116 colon
[11] = test system: HCT-15 colon
[12] = test system: HL-60(TB) leukemia
[13] = test system: HOP-62 NSCLC
[14] = test system: HS 578T breast
[15] = test system: HT29 colon
[16] = test system: IGROV1 ovarian
[17] = test system: K-562 leukemia
[18] = test system: KM12 colon
[19] = test system: LOX IMVI melanoma
[20] = test system: M14 melanoma
[21] = test system: MALME-3M melanoma
[22] = test system: MCF7 breast
[23] = test system: MDA-MB-231 breast
[24] = test system: MDA-MB-435
[25] = test system: MOLT-4 leukemia
[26] = test system: NCI-H226 lung
[27] = test system: NCI-H23 lung
[28] = test system: NCI-H460 lung
[29] = test system: NCI-H522 lung
[30] = test system: NCI/ADR-RES ovarian
[31] = test system: OVCAR-3 ovarian
[32] = test system: OVCAR-4 ovarian
[33] = test system: OVCAR-5 ovarian
[34] = test system: OVCAR-8 ovarian
[35] = test system: RPMI-8226 leukemia
[36] = test system: RXF 393 renal
[37] = test system: SF-268 CNS
[38] = test system: SF-295 CNS
[39] = test system: SF-539 CNS
[40] = test system: SK-MEL-28 melanoma
[41] = test system: SK-MEL-5 melanoma
[42] = test system: SK-OV-3 ovarian
[43] = test system: SN12C renal
[44] = test system: SNB-19 CNS
[45] = test system: SNB-75 CNS
[46] = test system: SR leukemia
[47] = test system: SW-620 colon
[48] = test system: T-47D breast
[49] = test system: TK-10 renal
[50] = test system: U251 CNS
[51] = test system: UACC-257 melanoma
[52] = test system: UACC-62 melanoma
[53] = test system: UO-31 renal
[54] = test system: BT-549 breast
[55] = test system: CCRF-CEM leukemia
[56] = test system: HOP-92 NSCLC
[57] = test system: PC-3 prostate
[58] = test system: SK-MEL-2 melanoma

O=C(N/N=C/c1ccc(F)cc1)c1ccc(C(F)(F)F)nc1Nc1cccc(C(F)(F)F)c1
2.32 µM: TGI [5]
3.34 µM: TGI [35]
2.69 µM: TGI [38]
3.76 µM: TGI [18]
5.78 µM: TGI [22]
5.23 µM: TGI [15]
2.98 µM: TGI [50]
6.55 µM: TGI [32]
4.84 µM: TGI [16]
4.39 µM: TGI [48]
11.9 µM: TGI [27]
2.17 µM: TGI [19]
3.72 µM: TGI [12]
4.17 µM: TGI [26]
3.86 µM: TGI [49]
4.87 µM: TGI [39]
4.82 µM: TGI [23]
5.77 µM: TGI [52]
7.92 µM: TGI [40]
6.69 µM: TGI [53]
10.2 µM: TGI [45]
5.02 µM: TGI [17]
4.62 µM: TGI [1]
6.58 µM: TGI [30]
1.88 µM: TGI [7]
2.72 µM: TGI [36]
6.87 µM: TGI [14]
inactive: GI50 [1] 0.691 µM | GI50 [2] 1.59 µM | GI50 [3] 2.29 µM | GI50 [4] 1.66 µM | GI50 [6] 1.56 µM | GI50 [7] 0.444 µM | GI50 [8] 0.713 µM | GI50 [9] 0.902 µM | GI50 [10] 0.65 µM | GI50 [12] 0.827 µM | GI50 [13] 1.2 µM | GI50 [14] 1.73 µM | GI50 [15] 2.02 µM | GI50 [16] 1.68 µM | GI50 [17] 1.07 µM | GI50 [18] 1.38 µM | GI50 [19] 0.522 µM | GI50 [20] 0.916 µM | GI50 [21] 1.28 µM | GI50 [22] 1.47 µM | GI50 [23] 1.23 µM | GI50 [24] 2.66 µM | GI50 [25] 1.57 µM | GI50 [26] 1.26 µM | GI50 [27] 2.58 µM | GI50 [28] 1.29 µM | GI50 [29] 1.61 µM | GI50 [30] 1.28 µM | GI50 [33] 1.34 µM | GI50 [34] 1.7 µM | GI50 [35] 1.07 µM | GI50 [36] 0.457 µM | GI50 [37] 0.465 µM | GI50 [38] 0.744 µM | GI50 [39] 1.82 µM | GI50 [40] 1.79 µM | GI50 [41] 1.62 µM | GI50 [42] 1.17 µM | GI50 [43] 1.63 µM | GI50 [44] 1.51 µM | GI50 [45] 1.64 µM | GI50 [47] 0.959 µM | GI50 [48] 1.02 µM | GI50 [49] 0.582 µM | GI50 [50] 0.598 µM | GI50 [51] 2.23 µM | GI50 [52] 1.66 µM | GI50 [53] 2.14 µM
3.08 µM: TGI [28]
4.04 µM: TGI [4]
2.79 µM: TGI [10]
1.87 µM: TGI [11]
8.44 µM: TGI [47]
4.56 µM: TGI [42]
6.72 µM: TGI [51]
4.85 µM: TGI [13]
10.1 µM: TGI [20]
4.54 µM: TGI [29]
4.48 µM: TGI [41]
2.4 µM: TGI [46]
active: GI50 [5] 0.34 µM | GI50 [11] 0.351 µM | GI50 [31] 0.254 µM | GI50 [32] 0.339 µM | GI50 [46] 0.426 µM
4.64 µM: TGI [8]
3.47 µM: TGI [6]
9.12 µM: TGI [33]
7.99 µM: TGI [44]
6.15 µM: TGI [3]
4.65 µM: TGI [2]
0.713 µM: TGI [31]
2.34 µM: TGI [37]
4.96 µM: TGI [9]
6.62 µM: TGI [34]
4.68 µM: TGI [21]
10 µM: TGI [24]
5.5 µM: TGI [25]
7.73 µM: TGI [43]

Nc1ncc(C2[C@H](CNC(=O)c3cc(Br)c[nH]3)C(CNC(=O)c3cc(Br)c[nH]3)[C@@H]2c2cnc(N)[nH]2)[nH]1 (stereo not given in full)
> 50 µM: TGI [1] | TGI [2] | TGI [3] | TGI [4] | TGI [54] | TGI [5] | TGI [55] | TGI [7] | TGI [9] | TGI [10] | TGI [11] | TGI [13] | TGI [56] | TGI [14] | TGI [16] | TGI [17] | TGI [18] | TGI [19] | TGI [20] | TGI [21] | TGI [22] | TGI [23] | TGI [24] | TGI [25] | TGI [26] | TGI [27] | TGI [28] | TGI [29] | TGI [30] | TGI [31] | TGI [32] | TGI [33] | TGI [34] | TGI [57] | TGI [35] | TGI [37] | TGI [38] | TGI [39] | TGI [58] | TGI [41] | TGI [43] | TGI [46] | TGI [47] | TGI [49] | TGI [50] | TGI [51] | TGI [52] | TGI [53]
45.6 µM: TGI [8]
active: GI50 [7] 0.329 µM
inactive: GI50 [1] > 50 µM | GI50 [2] > 50 µM | GI50 [3] > 50 µM | GI50 [4] > 50 µM | GI50 [54] 6.71 µM | GI50 [5] > 50 µM | GI50 [55] > 50 µM | GI50 [8] 5.56 µM | GI50 [9] > 50 µM | GI50 [10] > 50 µM | GI50 [11] > 50 µM | GI50 [13] > 50 µM | GI50 [56] 43.7 µM | GI50 [14] 40.1 µM | GI50 [16] > 50 µM | GI50 [17] 48.1 µM | GI50 [18] > 50 µM | GI50 [19] > 50 µM | GI50 [20] > 50 µM | GI50 [21] > 50 µM | GI50 [22] > 50 µM | GI50 [23] 8.01 µM | GI50 [24] > 50 µM | GI50 [25] 48.4 µM | GI50 [26] > 50 µM | GI50 [27] > 50 µM | GI50 [28] > 50 µM | GI50 [29] > 50 µM | GI50 [30] > 50 µM | GI50 [31] > 50 µM | GI50 [32] > 50 µM | GI50 [33] > 50 µM | GI50 [34] > 50 µM | GI50 [57] > 50 µM | GI50 [35] > 50 µM | GI50 [37] > 50 µM | GI50 [38] > 50 µM | GI50 [39] 8.79 µM | GI50 [58] > 50 µM | GI50 [41] > 50 µM | GI50 [43] 21.4 µM | GI50 [46] 25.1 µM | GI50 [47] > 50 µM | GI50 [49] > 50 µM | GI50 [50] > 50 µM | GI50 [51] > 50 µM | GI50 [52] > 50 µM | GI50 [53] > 50 µM

COc1cccc(CC2C(=O)NC(=O)NC2=O)c1
inactive: GI50 [46] 39.5 µg/mL
